Laboratory results from patent EP4631498A1, “EYE DROP-TYPE PHARMACEUTICAL COMPOSITION CONTAINING ENVOGLIFLOZIN” (Daewoong Therapeutics Inc., priority 2022, dated 2024).
In brackets after ≈: the same amount, converted by molar mass. Where two headings read alike, the source gives them in different places.

Assay: Saturation solubility of enavogliflozin in aqueous excipient solutions (HPLC)
Format: physicochemical
Conditions: for solubility at 12 h: aqueous excipient solution (excipient in purified water), thermodynamic from solid
Experimental: According to Table 1 below, enavogliflozin in the amount corresponding to each standard solution and 70 mL of methanol were placed in a volumetric flask and then completely dissolved under ultrasonic agitation. Methanol was added thereto to adjust the total volume to 100 mL. The resulting solution was taken and filtered through a 0.45 µm RC (Regenerated Cellulose) membrane filter. The first 2 mL was discarded and then the filtrate was used as a standard solution.
Each excipient was dissolved in 5 mL of purified water at the maximum concentration recommended by the FDA (Table 2) and then enavogliflozin was added thereto until it was no longer dissolved, followed by stirring for approximately 12 hours. After confirming no dissolution after 12 hours, each sample was centrifuged at 4000 rpm for 30 minutes and the clear supernatant (1 mL) was taken and then diluted with methanol. The resulting solution was filtered through a 0.45 µm RC membrane filter. The first 2 mL was discarded and then the filtrate was used as a test solution.
The peak areas of the standard and test solutions were analyzed under the following HPLC conditions. • Detector: UV spectrophotometer (wavelength: 225 nm) • Column: Capcellpak C18 (4.6 x 250 mm, 5 µm) • Column temperature: about 35°C • Sample temperature: about 25°C • Mobile phase: Buffer solution : acetonitrile = 25 : 75 (v/v) (Buffer solution: prepared by dissolving 100 µl of trifluoroacetic acid in 1000 mL of water) • Flow rate: 1.0 mL/min • Injection volume: 10 µL • Analysis time: about 20 minutes
Polyoxyl 40 stearate (Myrj™ S40) was dissolved in 5 mL of purified water at the concentration of 7.0 w/v% and then enavogliflozin was added thereto until it was no longer dissolved, followed by stirring for approximately 12 hours. Thereafter, the degree of solubilization was evaluated in the same manner as in Example 1.

- Solubility for unit concentration (Aqualon™ CMC 0.50 %w/v): 0.59 mg/%
- Solubility for unit concentration (Cavasol™ W8 1.50 %w/v): 0.72 mg/%
- Solubility for unit concentration (EtOH 0.50 %w/v): 0.51 mg/%
- Solubility for unit concentration (Glycerol 2.25 %w/v): 0.11 mg/%
- Solubility for unit concentration (HPMC 606 0.60 %w/v): 0.56 mg/%
- Solubility for unit concentration (Kollidon™ K30 15.00 %w/v): 0.24 mg/%
- Solubility for unit concentration (Kollidon™ K90 1.50 %w/v): 0.41 mg/%
- Solubility for unit concentration (Kolliphor™ EL 5.00 %w/v): 3.37 mg/%
- Solubility for unit concentration (Kolliphor™ HS 15 0.25 %w/v): 4.09 mg/%
- Solubility for unit concentration (Kolliphor™ RH 40 1.00 %w/v): 3.64 mg/%
- Solubility for unit concentration (Kollisolv™ PG 1.50 %w/v): 0.18 mg/%
- Solubility for unit concentration (PEG 400 4.00 %w/v): 0.08 mg/%
- Solubility for unit concentration (TPGS 0.50 %w/v): 4.63 mg/%
- Solubility for unit concentration (Tween™ 20 0.05 %w/v): 7.21 mg/%
- Solubility for unit concentration (Tween™ 80 4.00 %w/v): 3.95 mg/%
- solubility at 12 h (aqueous with cosolvent or surfactant or cyclodextrin, Aqualon™ CMC 0.50 %w/v in purified water, read-out: Saturation solubility): 300 µg/mL (≈ 671 µM)
- solubility at 12 h (aqueous with cosolvent or surfactant or cyclodextrin, Cavasol™ W8 1.50 %w/v in purified water, read-out: Saturation solubility): 1090 µg/mL (≈ 2440 µM)
- solubility at 12 h (aqueous with cosolvent or surfactant or cyclodextrin, HPMC 606 0.60 %w/v in purified water, read-out: Saturation solubility): 330 µg/mL (≈ 738 µM)
- solubility at 12 h (aqueous with cosolvent or surfactant or cyclodextrin, Kollidon™ K30 15.00 %w/v in purified water, read-out: Saturation solubility): 3600 µg/mL (≈ 8060 µM)
- solubility at 12 h (aqueous with cosolvent or surfactant or cyclodextrin, Kollidon™ K90 1.50 %w/v in purified water, read-out: Saturation solubility): 620 µg/mL (≈ 1390 µM)
- solubility at 12 h (aqueous with cosolvent or surfactant or cyclodextrin, Kolliphor™ EL 5.00 %w/v in purified water, read-out: Saturation solubility): 16800 µg/mL (≈ 37700 µM)
- solubility at 12 h (aqueous with cosolvent or surfactant or cyclodextrin, Kolliphor™ EL 5.0 w/v% in purified water, read-out: Saturation solubility of enavogliflozin): 16800 µg/mL (≈ 37700 µM)
- solubility at 12 h (aqueous with cosolvent or surfactant or cyclodextrin, Kolliphor™ HS 15 0.25 %w/v in purified water, read-out: Saturation solubility): 1020 µg/mL (≈ 2280 µM)
- solubility at 12 h (aqueous with cosolvent or surfactant or cyclodextrin, Kolliphor™ RH 40 1.00 %w/v in purified water, read-out: Saturation solubility): 3640 µg/mL (≈ 8140 µM)
- solubility at 12 h (aqueous with cosolvent or surfactant or cyclodextrin, Polyoxyl 40 stearate 7.0 w/v% in purified water, read-out: Saturation solubility of enavogliflozin): 32000 µg/mL (≈ 71600 µM)
- solubility at 12 h (aqueous with cosolvent or surfactant or cyclodextrin, TPGS 0.50 %w/v in purified water, read-out: Saturation solubility): 2310 µg/mL (≈ 5170 µM)
- solubility at 12 h (aqueous with cosolvent or surfactant or cyclodextrin, Tween™ 20 0.05 %w/v in purified water, read-out: Saturation solubility): 360 µg/mL (≈ 806 µM)
- solubility at 12 h (aqueous with cosolvent or surfactant or cyclodextrin, Tween™ 80 4.00 %w/v in purified water, read-out: Saturation solubility): 15800 µg/mL (≈ 35400 µM)
- solubility at 12 h (water, EtOH 0.50 %w/v in purified water, read-out: Saturation solubility): 260 µg/mL (≈ 582 µM)
- solubility at 12 h (water, Glycerol 2.25 %w/v in purified water, read-out: Saturation solubility): 240 µg/mL (≈ 537 µM)
- solubility at 12 h (water, Kollisolv™ PG 1.50 %w/v in purified water, read-out: Saturation solubility): 270 µg/mL (≈ 604 µM)
- solubility at 12 h (water, PEG 400 4.00 %w/v in purified water, read-out: Saturation solubility): 330 µg/mL (≈ 738 µM)
Structure (SMILES): OC[C@H]1O[C@@H](c2cc(Cc3ccc(C4CC4)cc3)c(Cl)c3c2CCO3)[C@H](O)[C@@H](O)[C@@H]1O [enavogliflozin, Enavogliflozin]
